From patent US7786097B2, “Tricyclic compounds, compositions and methods” (Pfizer Inc., priority 2007, dated 2010)

Experiments:
Serum osteocalcin = Serum osteocalcin suppression, 28-day repeat dose mouse model; type: in vivo, Swiss Webster female mice; conditions: mice
Method: The compounds were weighed and suspended in a vehicle of 0.5% methylcellulose/0.025% tween 20 (Sigma-Aldrich, St. Louis, Mo.). Compound suspensions were homogenized using a Polytron PT-3100 tissue homogenizer to create a very fine suspension and were then sonicated for 10 minutes using a water bath sonicator. Aliquots of each suspension were made for daily dosing at 0.2 ml/dose. Swiss Webster female mice, 10-12 weeks old, 28-29 grams, (Taconic, Germantown, N.Y.) were used in accordance with the guidelines of the Institutional Animal Care and Use Committee and in accordance with NIH guidelines on laboratory animal welfare. Mice were acclimated in the Pfizer animal facility for three to seven days prior to being utilized in a study. […] Each treatment group contained 5-10 mice. To establish a dosing regimen for the studies, a pilot pharmacodynamic time course experiment was conducted to quantify TNFα repression after a single ED80 dose.
Body weights were measured on the first and last day of each experiment. Blood samples were obtained after three weeks of dosing for a steady-state pharmacokinetic (PK) analysis. To assess compound effects on LPS-induced TNFα, all mice received an intraperitoneal injection of LPS (Salmonella typhosa, L-7895; Sigma-Aldrich, St. Louis) 2.5 hr after the last dose on day 28. Mice were sacrificed 90 minutes after LPS administration. Serum samples were quantified for osteocalcin and TNFα using the multiplex assays (Linco Research, Inc, St. Charles, Mo.; Luminex 100, Austin, Tex.). Samples were diluted 1:20 and the assay was run according to manufacturer's instructions. The osteocalcin standard was purchased separately (Biomedical Technologies Inc., Stoughton, Mass.). Mice were fasted for 4 hours before serum was collected for TNFα, and osteocalcin levels. For each experiment, outliers were detected by calculating the number of standard deviations from the mean of the group. If the value being examined was more than 2.5 standard deviations from the mean, it was excluded from the rest of the calculations.
The individual mouse percent inhibition values were fit to a four-parameter logistic model using the dose mean for each group.
ED50 and ED80 values were obtained for the various endpoints using a four-parameter logistic fit. For compounds which were tested multiple times, ED50 and ED80 values were obtained using four-parameter logistic fits of the combined data from multiple experiments.

[1] = tested on: house dust mite-induced BAL inflammatory cell influx; experiment: House dust mite model of asthma, BAL inflammatory cell influx; type: in vivo, Mice; conditions: 0.1, 1 and 10 mg/kg, p.o., b.i.d.
[2] = tested on: Mouse Collagen-Induced Arthritis (mCIA); experiment: Therapeutic mouse collagen-induced arthritis (mCIA) model; type: in vivo, Male DBA/J mice; conditions: Mus musculus; mice, dosing day 34 through day 49; read-out: Therapeutic mCIA (ED80 dose)
Excerpt: Mouse Collagen-induced arthritis is a commonly used chronic, preclinical model of rheumatoid arthritis in which joint swelling and bone destruction occur following immunization with type II collagen. Reduction of disease incidence and severity has been shown previously to be predictive of disease-modification and signs and symptoms mitigation, respectively, in a clinical setting.
In the therapeutic mCIA model, induction of disease incidence and severity was synchronized via LPS stimulation. Male DBA/J mice were immunized with 100 ug of bovine type II collagen (bCII) on day 0. All mice received an intraperitoneal injection of 20 μg of LPS on day 28 and disease was allowed to develop through day 34. At day 34, all mice had disease (incidence=100%) with an average severity score of seven. Dosing of compounds was initiated in the therapeutic mode on day 34 and continued through day 49. Different treatments were compared by measuring the decrease in incidence (i.e., resolution of disease) and the decrease in severity of paw swelling over time.

[3] = tested on: Cortical bone formation rate (BFR); experiment: Cortical bone histomorphometry, bone formation rate (BFR); type: in vivo; conditions: AUC 0-4 hr, mice
Method: During the in-life portion of each study, mice received two intraperitoneal (i.p.) injections (20 mg/kg, […]) of calcein (C-0875; Sigma-Aldrich, St. Louis, Mo.) on days 1 and 26 for bone histomorphometry measurements. Calcein incorporates into the bone mineral and allows measurement of bone formation rate. Calcein was dissolved in 2% sodium bicarbonate. During the tissue harvest, the left tibiae were excised and cleaned for cortical histomorphometry measurements. After all skin and muscle were removed, tibiae were placed in 70% ethanol 4° C.) in the dark for a minimum of 24 hours.
Ground transverse sections were used for histomorphometric analysis of cortical bone. Bones were sectioned using a low-speed saw (Isomet, Buehler, Lake Bluff, Ill.) equipped with a diamond wafer blade. The end of each tibia was removed proximal to tibia-fibula synostosis and a […] cross-section was cut. Using a roughened glass plate and a cork, sections were ground to […] until transparent and all labels were distinguishable under a fluorescent microscope. Sections were dehydrated using the following solutions for a minimum of two minutes each: 1) 70% ethanol, 2) 95% ethanol, 3) 100% ethanol, 4) 50/50 ethanol/xylene, and 5) xylene (twice) (#534056; Sigma-Aldrich, St. Louis, Mo.). Sections were mounted using Eukitt Quick Mounting Medium (#03989, Sigma-Aldrich, St. Louis, Mo.) after which coverslip was applied. Using the Osteomeasure Bone Analysis Program (Osteometrics, Inc., Decatur, Ga.), bone formation rate was calculated by tracing the 1st and […] fluorescent labels and the inner and outer perimeter of the bone. Bone formation rate was calculated by the following equation: (Inter-label width/Label interval)*(Labeled perimeter/Bone perimeter). At least five samples were measured from each treatment group in each study.

[4] = Oral dosing in portal vein-cannulated rats, portal vein plasma; type: in vivo; conditions: oral dosing of Example 2 (30 and 200 mg/kg), four-hour time period

Serum osteocalcin EAUC50 (Serum osteocalcin; AUC 0-4 hr): 1.30 µg·h/mL | Serum osteocalcin EAUC80 (Serum osteocalcin; AUC 0-4 hr): 4.20 µg·h/mL | Osteocalcin Suppression (ED80 dose) (Serum osteocalcin; oral gavage 28 days, serum osteocalcin): >10 mg/kg | Cortical bone formation rate (BFR) EAUC50 [3]: 0.27 µg·h/mL | detection in portal vein plasma samples [4]: detection of Example 1
Structure (SMILES): Cc1ncccc1NC(=O)c1ccc2c(c1)CC[C@@H]1C[C@@](O)(C(F)(F)F)CC[C@@]21Cc1ccccc1 [Example 1, (4βS,7R,8αR)-4β-benzyl-7-hydroxy-N-(2-methylpyridin-3-yl)-7-(trifluoromethyl)-4β,5,6,7,8,8α,9,10-octahydrophenanthrene-2-carboxamide]
cell infiltration into BAL fluid [1]: mitigated cell infiltration into BAL fluid dose-dependently | ED80 [2]: < 2 mg/kg
